Each block holds one compound with its values, some of them ahead of it.
Experiments:
[1] = concentrations up to 200 μM; propionate buffer pH 5.2, 16 h, 37°C; biological triplicate
Method: Assay plates were incubated at 37°C with gentle shaking for 16 h. A combination of 7.5% SDS in a 0.1 M bicarbonate buffer (pH 9.1) was then added to microtiter wells at a 1:3 ratio with gentle mixing. Plates were incubated for 10 min to allow crystals to settle before taking 50 μL of supernatant and adding it to 200 μL of 2.5% SDS in a 0.1 M bicarbonate buffer, pH 9.1. After mixing, absorbances were read at 405 nm on a Synergy Neo2 multimode reader (BioTek, Winsooki, VT). […] Images of the 200 μM treatment or control prior to SDS quenching were taken using a Nikon Eclipse TE200 inverted microscope.

[2] = system: P. falciparum asexual blood stage parasites grown in 10% human serum; experiment: Antiplasmodial activity with serum media; format: cell-based; details: Plasmodium falciparum, 336 h; RPMI with 10% human serum, maintained minimum 2 weeks; mean ± SEM from 3 biological replicates
Method: (§1) Asexual blood stage parasites grown in the Chakrabarti laboratory were cultured based on a protocol by Trager and Jensen[57] with some modifications.[35] […] For comparison screening using serum vs Albumax II, culture media was changed from RPMI with 0.5% Albumax II to RPMI with 10% human serum and maintained for a minimum of 2 weeks prior to assay use.
(§2) Inhibitor EC50 determination in 3D7 and Dd2 was performed as discussed in,[35] based on established protocols.[60] Assays utilized asynchronous culture at 1% parasitemia, 1% hematocrit. Culture was incubated with compound dilutions for 72 h followed by freezing at −80°C to promote lysis, then thawing and incubation for 45 min–1 h with 1× SYBR Green I in a lysis buffer (20 mM Tris-HCL, 0.08% saponin, 5 mM EDTA, and 0.8% Triton X-100). Fluorescence was read 485 nm excitation, 530 nm emission on a Synergy Neo2 multimode reader (BioTek Winsooki, VT) and EC50 curves were generated using CDD Vault (https://www.collaborativedrug.com/).

[3] = system: P. falciparum asexual blood stage parasites grown in 0.5% Albumax II; experiment: Antiplasmodial activity with Albumax II media; format: cell-based; details: Plasmodium falciparum; RPMI with 0.5% Albumax II; mean ± SEM from 3 biological replicates
Method: as §1, §2

[4] = system: PfMDR1 cKD parasite line; experiment: MDR1 compound susceptibility assay (Renilla luciferase); format: cell-based, P. falciparum
Text: A conditional knockdown parasite line was generated for the P. falciparum multi-drug resistance 1 (MDR1; PF3D7_0523000) following previously described procedures.[84]^,[85] The native PfMDR1 locus was engineered using CRISPR/SpCas9 to afford transcriptional fusion of 10 tandem TetR-DOZI binding aptamers in the 3′UTR for anhydrotetracycline (aTc)-dependent regulation of PfMDR1 expression.
(§3) As a control cell line, a parasite line expressing an aptamer-regulatable fluorescent protein integrated in the cg6 locus[84] was assayed in parallel. Synchronous ring-stage parasites in the presence (0.5 μM) and absence of aTc were dispensed into 384-well polystyrene microplates (Corning®), and compounds added using the Janus® platform (PerkinElmer). DMSO- and DHA (0.5 μM) served as normalization controls for maximal and minimum signal. Luminescence was measured after 72 h and IC50 values were obtained from normalized dose-response curves using GraphPad Prism Version 8.

[5] = system: wild-type YFP-expressing NF54; experiment: MDR1 compound susceptibility assay, control line; format: cell-based, P. falciparum; details: Plasmodium falciparum, NF54, MDR1, 72 h, read-out: IC50 in the wild-type YFP-expressing NF54
Method: as §3

[6] = system: P. falciparum Dd2; experiment: Phenotypic screen: asexual blood stage EC50 determination (SYBR Green I); format: cell-based; details: values in Data S1 (not shown)
Method: Asexual blood stage parasites grown in the Chakrabarti laboratory were cultured based on a protocol by Trager and Jensen[57] with some modifications.[35] Culture was maintained at 4% hematocrit with human A+ whole blood obtained from the Florida OneBlood, in RPMI 1640 supplemented with 25 mM HEPES pH 7.4, 26 mM NaHCO3, 2% dextrose, 15 mg/L hypoxanthine, 25 mg/L gentamycin, and 0.5% Albumax II. Incubator conditions remained at 37°C and 5% CO2, 5% O2, 90% N2, or 95% air. For comparison screening using serum vs Albumax II, culture media was changed from RPMI with 0.5% Albumax II to RPMI with 10% human serum and maintained for a minimum of 2 weeks prior to assay use.
as §2

- EC50 [2]: 100 ± 20 nM
- EC50 [3]: 160 ± 10 nM
Compound: CCN(CC)CCCC(C)Nc1ccnc2cc(Cl)ccc12 (stereo not shown) [CQ, chloroquine, reference compound]
- inhibition of β-hematin crystallization [1]: clear, dose-dependent inhibition

Compound: OC(c1cc(C(F)(F)F)nc2c(C(F)(F)F)cccc12)C1CCCCN1 (stereo not shown) [mefloquine, reference compound]
- IC50 ([4]; Plasmodium falciparum, MDR1, 72 h, read-out: IC50 when the protein was knocked down): 5 nM
- shift in sensitivity upon PfMDR1 knockdown ([4]; with (0.5 μM) vs without aTc, 72 h, luminescence): ~12 fold
- IC50 [5]: 0.4 nM

Compound: Ac-Aib-L-Asn-L-Leu-L-Ile-Aib-L-Pro-D-Iva-L-Leu-Aib-L-Pro-L-Leu-NH2 [Harzianin HB I – amide, synthesized amide of an 11-AA peptaibol]
- activity of new isomers relative to their original counterparts [6]: decreased inhibition

Source: article PMC10923054, “Antiplasmodial peptaibols act through membrane directed mechanisms” (Cell Chemical Biology, 2024)
